pIC50: −log10 of the molar value. Non-standard residues stand in square brackets, D forms with d. Residues, ends and D or L forms follow the SMILES beside them. pGlu = O=C1CC[C@@H](C(=O)O)N1

Experimental findings from US9006171B2, “Angiotensin converting enzyme inhibitory peptide” (Kikkoman Corporation, priority 2009, dated 2015) are described below.

This experiment deals with T1, ACE (rabbit lung-derived) (Oryctolagus cuniculus, UniProt P12822).
T1 construct: 0.3 U/ml of ACE (rabbit lung-derived, manufactured by SIGMA); purchased SIGMA; host or cells: rabbit lung (tissue-derived)
T1 sequence (P12822 34-1310): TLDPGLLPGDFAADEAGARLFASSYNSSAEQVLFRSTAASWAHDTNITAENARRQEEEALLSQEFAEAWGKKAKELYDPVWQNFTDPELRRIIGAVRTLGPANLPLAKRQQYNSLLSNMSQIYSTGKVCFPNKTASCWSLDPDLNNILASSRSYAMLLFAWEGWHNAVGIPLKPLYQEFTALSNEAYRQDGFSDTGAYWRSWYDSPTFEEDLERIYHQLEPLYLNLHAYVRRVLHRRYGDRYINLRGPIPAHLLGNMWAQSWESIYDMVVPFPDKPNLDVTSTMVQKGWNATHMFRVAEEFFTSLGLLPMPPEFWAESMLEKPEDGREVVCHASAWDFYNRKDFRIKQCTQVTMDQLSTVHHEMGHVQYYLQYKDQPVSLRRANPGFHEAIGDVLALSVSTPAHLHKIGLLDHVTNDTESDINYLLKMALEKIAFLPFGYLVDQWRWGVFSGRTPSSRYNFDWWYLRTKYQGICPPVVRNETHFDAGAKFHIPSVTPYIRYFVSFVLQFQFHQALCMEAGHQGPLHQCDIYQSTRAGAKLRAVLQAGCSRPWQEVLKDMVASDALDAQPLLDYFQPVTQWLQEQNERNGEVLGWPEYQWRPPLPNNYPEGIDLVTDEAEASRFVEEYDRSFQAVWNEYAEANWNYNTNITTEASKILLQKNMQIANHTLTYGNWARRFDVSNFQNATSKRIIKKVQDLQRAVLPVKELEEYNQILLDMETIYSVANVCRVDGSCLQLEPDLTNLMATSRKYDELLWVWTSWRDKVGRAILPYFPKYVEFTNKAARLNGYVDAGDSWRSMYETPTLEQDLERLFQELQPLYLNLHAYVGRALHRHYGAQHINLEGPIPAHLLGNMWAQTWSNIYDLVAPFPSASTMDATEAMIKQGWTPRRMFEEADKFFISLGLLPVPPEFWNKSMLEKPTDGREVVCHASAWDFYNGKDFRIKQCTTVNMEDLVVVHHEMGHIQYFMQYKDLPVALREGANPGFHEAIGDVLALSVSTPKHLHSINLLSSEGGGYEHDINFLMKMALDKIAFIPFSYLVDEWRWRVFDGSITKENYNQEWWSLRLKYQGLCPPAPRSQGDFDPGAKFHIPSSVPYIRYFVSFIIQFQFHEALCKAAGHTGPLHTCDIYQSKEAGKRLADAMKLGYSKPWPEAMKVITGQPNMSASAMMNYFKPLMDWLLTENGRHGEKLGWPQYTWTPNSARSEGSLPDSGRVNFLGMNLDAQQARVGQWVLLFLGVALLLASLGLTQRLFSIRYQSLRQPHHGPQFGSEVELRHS
The experiment in a line: ACE inhibitory activity (modified method of Yamamoto et al., Hippuryl-His-Leu substrate). It counts as biochemical. Conditions: pH 8.3, 37° C., 30 minutes, chemically synthesized peptides. The protocol:
ACE inhibitory activity of the peptides obtained by the aforementioned synthesis method was measured. As the measuring method, it was carried out by a method in which the method of Yamamoto et al. (Setsuko Yamamoto et al., Journal of the Japan Society of Chest Diseases, 1980, 18, p. 297-302) was partially modified. Namely, 140 μl of sample solution, 10 μl of enzyme solution (0.3 U/ml of ACE (rabbit lung-derived, manufactured by SIGMA) and 50 mM borate buffer (pH 8.3) were added to 100 μl of a substrate solution (12.5 mM Hippuryl-His-Leu (manufactured by SIGMA), 100 mM borate buffer pH 8.3, 1M NaCl), and the reaction was carried out at 37° C. for 30 minutes. Subsequently, the reaction was stopped by adding 250 μl of 1 N hydrochloric acid and, after stirring by adding 1.5 ml of ethyl acetate and subsequent centrifugation, 1 ml of the ethyl acetate layer was concentrated and dried by centrifugal concentration followed by dissolution in 1 ml of ultrapure water to measure the absorbance at 228 nm. The ACE inhibitory ratio is represented by the following formula. ACE inhibitory ratio (%)={1−(ODs−ODsb)/(ODc−ODcb)}×100
In this connection, ODs is the absorbance when the reaction was carried out by adding the enzyme solution to a sample as described above; ODsb is the absorbance when ultrapure water was added instead of the enzyme solution; ODc is the absorbance when ultrapure water was added instead of the sample solution; and ODcb is the absorbance when ultrapure water was added instead of the enzyme solution and sample solution. Additionally, the concentration of a sample which gives 50% of the enzyme activity inhibitory ratio on this reaction system is regarded as the IC50 value.
Usually pIC50 stands for the IC50 on a negative log10 scale, so that one unit is a factor of ten. Read a low pIC50 as a large IC50. With `C[C@@H](O)[C@H](NC(=O)[C@@H](N)Cc1ccc(O)cc1)C(=O)O` [Tyr-Thr] (H-Tyr-Thr-OH), the pIC50 was 4.46. In turn, `NC(=O)C[C@H](N)C(=O)N[C@@H](Cc1c[nH]c2ccccc12)C(=O)O` [Asn-Trp] (H-Asn-Trp-OH; N-terminus and C-terminus assumed) gave a negative-log IC50 (pIC50) of 4.60. The pIC50 values of the last two compounds are within 0.2 log units of each other. As for `O=C1CC[C@@H](C(=O)N2CCC[C@H]2C(=O)O)N1` [pyroGlu-Pro] ([pGlu]-Pro-OH; C-terminus assumed), the figure is 3.97. For `O=C(O)[C@H](Cc1c[nH]c2ccccc12)NC(=O)[C@@H]1CCCN1` [Pro-Trp] (H-Pro-Trp-OH; N-terminus and C-terminus assumed) the value was 3.73.
